Data taken from ChEMBL document CHEMBL5150052, “Riboflavin-Promoted In Situ Photoactivation of Dihydroalkaloid Prodrugs for Cancer Therapy” (J Med Chem, 2022).
Active and inactive are the calls of the source. The rule behind the calls is not given here.

Assays:
[1] = Toxicity in human A-375 cells xenografted in mouse model assessed as changes in BUN in presence of DHCHE under blue light 450 nm/20 mW/cm^-2 irradiation at 1 mg/kg administered intratumoral injection for 14 days by […]; type: organism-based; details: in vivo, other, 336 h, route it(Intratumoral), time 14 day
A-375 [2] = test: Potentiation of DHCHE-mediated anticancer activity against human A-375 cells assessed as cell killing under blue light 450 nm/20 mW/cm^-2 irradiation at 10 uM after 10 min by MTT assay; type: functional, cell-based
[3] = Toxicity in human A-375 cells xenografted in mouse model assessed as inflammation lesions in spleen in presence of DHCHE under blue light 450 nm/20 mW/cm^-2 irradiation at 1 mg/kg administered intratumoral injection for 14 days by H and E staining based assay; type: organism-based; details: in vivo, other, 336 h, route it(Intratumoral), time 14 day
[4] = Photooxidative transformation of DHCHE assessed as decrease in DHCHE peak under blue light 450 nm/20 mW/cm^-2 irradiation at 0.1 mg/ml by HPLC analysis (reference value: 82.7%); type: functional; design: scale not given: the % may be the effect or the level left
[5] = Toxicity in human A-375 cells xenografted in mouse model assessed as changes in AST in presence of DHCHE under blue light 450 nm/20 mW/cm^-2 irradiation at 1 mg/kg administered intratumoral injection for 14 days by […]; type: organism-based; details: in vivo, other, 336 h, route it(Intratumoral), time 14 day
[6] = Photooxidative transformation of DHCHE assessed as increase in generation of CHE under blue light 450 nm/20 mW/cm^-2 irradiation at 10 uM by UV-vis absorption spectra analysis; type: functional
[7] = Toxicity in human A-375 cells xenografted in mouse model assessed as change in body weight in presence of DHCHE under blue light 450 nm/20 mW/cm^-2 irradiation at 1 mg/kg administered intratumoral injection for 14 days; type: organism-based; details: in vivo, other, 336 h, route it(Intratumoral), time 14 day
[8] = Toxicity in human A-375 cells xenografted in mouse model assessed as inflammation lesions in heart in presence of DHCHE under blue light 450 nm/20 mW/cm^-2 irradiation at 1 mg/kg administered intratumoral injection for 14 days by H and E staining based assay; type: organism-based; details: in vivo, other, 336 h, route it(Intratumoral), time 14 day
[9] = Photooxidative transformation of DHSAN assessed as increase in generation of SAN under blue light 450 nm/20 mW/cm^-2 irradiation at 10 uM by UV-vis absorption spectra analysis; type: functional
[10] = Photooxidative transformation of DHCHE assessed as decrease in DHCHE peak under blue light 450 nm/20 mW/cm^-2 irradiation at 0.1 mg/ml from 0 to 20 mins by NMR spectra analysis; type: functional; details: time 0-20 min
A-375 [11] = test: Potentiation of DHNIT-mediated apoptosis activity against human A-375 cells assessed as cell killing under blue light 450 nm/20 mW/cm^-2 irradiation at 10 uM after 30 min by CLSM imaging method; type: functional, cell-based
[12] = Toxicity in human A-375 cells xenografted in mouse model assessed as changes in ALT in presence of DHCHE under blue light 450 nm/20 mW/cm^-2 irradiation at 1 mg/kg administered intratumoral injection for 14 days by […]; type: organism-based; details: in vivo, other, 336 h, route it(Intratumoral), time 14 day
A-375 [13] = test: In vivo antitumor activity against human A-375 cells xenografted in mouse model assessed as potentiation of DHCHE-mediated anticancer activity by measuring increase in vacuole and condensed nuclei at 1 mg/kg administered intratumoral injection for 14 days by […]; type: functional, organism-based; details: route it(Intratumoral), time 14.0 day
A-375 [14] = test: In vivo antitumor activity against human A-375 cells xenografted in mouse model assessed as potentiation of DHCHE-mediated tumor growth inhibition under blue light 450 nm/20 mW/cm^-2 irradiation at 1 mg/kg administered intratumoral injection for 14 days; type: functional, organism-based; details: route it(Intratumoral), time 14.0 day
[15] = Toxicity in human A-375 cells xenografted in mouse model assessed as inflammation lesions in intestine in presence of DHCHE under blue light 450 nm/20 mW/cm^-2 irradiation at 1 mg/kg administered intratumoral injection for 14 days by H and E staining based assay; type: organism-based; details: in vivo, other, 336 h, route it(Intratumoral), time 14 day
A-375 [16] = test: Potentiation of DHSAN-mediated apoptosis activity against human A-375 cells assessed as cell killing under blue light 450 nm/20 mW/cm^-2 irradiation at 10 uM after 30 min by CLSM imaging method; type: functional, cell-based
A-375 [17] = test: Photooxidative transformation of DHCHE in human A-375 cells assessed as increase in red fluorescence in nucleus under blue light 450 nm/20 mW/cm^-2 irradiation at 10 uM after 1 min by confocal laser scanning microscopy; type: ADME, cell-based; details: a-375, 1 min
A-375 [18] = test: Potentiation of DHCHE-mediated apoptosis activity against human A-375 cells assessed as increase in Bax gene expression under blue light 450 nm/20 mW/cm^-2 irradiation at 10 uM after 10 min by quantitative reverse transcription PCR analysis; type: functional, cell-based
A-375 [19] = test: Potentiation of DHCHE-mediated apoptosis activity against human A-375 cells assessed as increase in P53 gene expression under blue light 450 nm/20 mW/cm^-2 irradiation at 10 uM after 10 min by quantitative reverse transcription PCR analysis; type: functional, cell-based
[20] = Photooxidative transformation of DHCHE assessed as decrease in DHCHE peak under blue light 450 nm/20 mW/cm^-2 irradiation at 0.1 mg/ml from 0 to 20 mins by HRMS spectra analysis; type: functional; details: time 0-20 min
A-375 [21] = test: In vivo antitumor activity against human A-375 cells xenografted in mouse model assessed as potentiation of DHCHE-mediated anticancer activity by measuring decrease in Ki-67 expression at 1 mg/kg administered intratumoral injection for 14 days by […]; type: functional, organism-based; details: route it(Intratumoral), time 14.0 day
A-375 [22] = test: Potentiation of DHSAN-mediated anticancer activity against human A-375 cells assessed as cell killing under blue light 450 nm/20 mW/cm^-2 irradiation at 10 uM after 10 min by MTT assay; type: functional, cell-based
[23] = Photooxidative transformation of DHNIT assessed as increase in generation of NIT under blue light 450 nm/20 mW/cm^-2 irradiation at 10 uM by UV-vis absorption spectra analysis; type: functional
A-375 [24] = test: Potentiation of DHCHE-mediated apoptosis activity against human A-375 cells assessed as cell killing under blue light 450 nm/20 mW/cm^-2 irradiation at 10 uM after 30 min by CLSM imaging method; type: functional; details: 0.5 h
[25] = Toxicity in human A-375 cells xenografted in mouse model assessed as inflammation lesions in kidney in presence of DHCHE under blue light 450 nm/20 mW/cm^-2 irradiation at 1 mg/kg administered intratumoral injection for 14 days by H and E staining based assay; type: organism-based; details: in vivo, other, 336 h, route it(Intratumoral), time 14 day
A-375 [26] = test: In vivo antitumor activity against human A-375 cells xenografted in mouse model assessed as potentiation of DHCHE-mediated anticancer activity by measuring increase in caspase 3 expression at 1 mg/kg administered intratumoral injection for 14 days by […]; type: functional, organism-based; details: route it(Intratumoral), time 14.0 day
A-375 [27] = test: Potentiation of DHCHE-mediated apoptosis activity against human A-375 cells assessed as decrease in Bcl2 gene expression under blue light 450 nm/20 mW/cm^-2 irradiation at 10 uM after 10 min by quantitative reverse transcription PCR analysis; type: functional, cell-based
[28] = Toxicity in human A-375 cells xenografted in mouse model assessed as inflammation lesions in lung in presence of DHCHE under blue light 450 nm/20 mW/cm^-2 irradiation at 1 mg/kg administered intratumoral injection for 14 days by H and E staining based assay; type: organism-based; details: in vivo, other, 336 h, route it(Intratumoral), time 14 day
A-375 [29] = test: Potentiation of DHNIT-mediated anticancer activity against human A-375 cells assessed as cell killing under blue light 450 nm/20 mW/cm^-2 irradiation at 10 uM after 10 min by MTT assay; type: functional, cell-based
[30] = Toxicity in human A-375 cells xenografted in mouse model assessed as inflammation lesions in liver in presence of DHCHE under blue light 450 nm/20 mW/cm^-2 irradiation at 1 mg/kg administered intratumoral injection for 14 days by H and E staining based assay; type: organism-based; details: in vivo, other, 336 h, route it(Intratumoral), time 14 day
A-375 [31] = test: Potentiation of DHCHE-mediated apoptosis activity against human A-375 cells assessed as increase in Caspase 3 gene expression under blue light 450 nm/20 mW/cm^-2 irradiation at 10 uM after 10 min by quantitative reverse transcription PCR analysis; type: functional, cell-based
[32] = Toxicity in human A-375 cells xenografted in mouse model assessed as changes in total protein in presence of DHCHE under blue light 450 nm/20 mW/cm^-2 irradiation at 1 mg/kg administered intratumoral injection for 14 days by […]; type: organism-based; details: in vivo, other, 336 h, route it(Intratumoral), time 14 day

Drug metabolism (A-375 [17]): Metabolite_Detected
SMILES: Cc1cc2nc3c(=O)[nH]c(=O)nc-3n(C[C@H](O)[C@H](O)[C@H](O)CO)c2cc1C [RIBOFLAVIN]
Activity [1]: Non-Toxic | Activity (A-375 [2]): Active | Activity [3]: Non-Toxic | Activity [4]: 11.2% | Activity [5]: Non-Toxic | Drug metabolism [6]: Metabolite detected | Activity [7]: Non-Toxic | Activity [8]: Non-Toxic | Drug metabolism [9]: Metabolite detected | Drug metabolism [10]: Metabolite detected | Activity (A-375 [11]): Active | Activity [12]: Non-Toxic | Activity (A-375 [13]): Active | Activity (A-375 [14]): Active | Activity [15]: Non-Toxic | Activity (A-375 [16]): Active | Activity (A-375 [18]): Active | Activity (A-375 [19]): Active | Drug metabolism [20]: Metabolite detected | Activity (A-375 [21]): Active | Activity (A-375 [22]): Active | Drug metabolism [23]: Metabolite detected | Activity (A-375 [24]): 61.7% | Activity [25]: Non-Toxic | Activity (A-375 [26]): Active | Activity (A-375 [27]): Active | Activity [28]: Non-Toxic | Activity (A-375 [29]): Active | Activity [30]: Non-Toxic | Activity (A-375 [31]): Active | Activity [32]: Non-Toxic
